Active and inactive are the calls of the source. The rule behind the calls is not given here.

Test [1] in a line: DPPH radical scavenging activity at 1 ug/ml after 30 mins. In kind it is functional. (In general: DPPH is a stable violet radical that fades when it is reduced.)
The nature of test [2]: DPPH radical scavenging activity at 10 ug/ml after 30 mins. The format is functional.
Test [3] is described as follows: DPPH radical scavenging activity at 50 ug/ml after 30 mins. The format is functional.
The subject of test [4] is V79-4. As to the kind of experiment: ROS scavenging activity in chinese hamster V79-4 cells at 1 ug/mL after 30 mins by DCF-DA method. In kind it is functional, Cricetulus griseus.
The subject of test [5] is V79-4. As to the kind of experiment: ROS scavenging activity in chinese hamster V79-4 cells at 10 ug/mL after 30 mins by DCF-DA method. In kind it is functional, Cricetulus griseus.
For test [6], the system named is V79-4. Put plainly: ROS scavenging activity in chinese hamster V79-4 cells at 50 ug/mL after 30 mins by DCF-DA method. The format is functional, Cricetulus griseus.
Test [7] relates to V79-4. Put plainly: Protective effect on hydrogen peroxide-induced cell damage in chinese hamster V79-4 cells assessed as decrease in apoptotic sub-G1 DNA content at 50 ug/ml by flow cytometry. The format is functional, Cricetulus griseus. On the set-up: scale not given: the % may be the effect or the level left. On the technique in general: Flow cytometry measures light scatter and fluorescence of single cells or particles in a stream.

The test system of test [8] is V79-4. Put plainly: Protective effect on hydrogen peroxide-induced cell damage in chinese hamster V79-4 cells assessed as decrease in DNA fragmentation level at 50 ug/ml by ELISA. The format is functional, cell-based. To be noted: Cricetulus griseus. Background: In an ELISA, binding on a coated surface is turned into a signal by an enzyme label.
The subject of test [9] is V79-4. As to the kind of experiment: Protective effect on hydrogen peroxide-induced damage in chinese hamster V79-4 cells in presence of U0126 by MTT assay. In kind it is functional, cell-based. To be noted: Cricetulus griseus.
For test [10], the system named is V79-4. Put plainly: Activation of ERK in chinese hamster V79-4 cells assessed as phosphorylated ERK within 6 hrs. Conditions: Cricetulus griseus. In kind it is cell-based.
Test [11] has as its target Transcription factor Jun (Homo sapiens) (UniProt P05412). Put plainly: Increase in transcriptional activity of AP1 transfected in V79-4 cells by luciferase assay. The format is cell-based.
The test system of test [12] is V79-4. As to the kind of experiment: Effect on hydrogen peroxide-induced DNA damage in chinese hamster V79-4 cells assessed as decrease in phospho H2A.X expression. Conditions: Cricetulus griseus. In kind it is functional, cell-based.
Test [13] deals with V79-4. Put plainly: Decrease in hydrogen peroxide-induced 8-OHdG in chinese hamster V79-4 cells at 1 ug/mL. The format is functional, Cricetulus griseus.
For test [14], the system named is V79-4. As to the kind of experiment: Inhibition of hydrogen peroxide-induced lipid peroxidation in chinese hamster V79-4 cells assessed as TBARS per mg of protein at 1 ug/mL. The format is functional, Cricetulus griseus.
Test [15] deals with V79-4. Put plainly: Inhibition of hydrogen peroxide-induced lipid peroxidation in chinese hamster V79-4 cells assessed as TBARS per mg of protein at 10 ug/mL. In kind it is functional, Cricetulus griseus.
The subject of test [16] is V79-4. As to the kind of experiment: Inhibition of hydrogen peroxide-induced lipid peroxidation in chinese hamster V79-4 cells assessed as TBARS per mg of protein at 50 ug/mL. The format is functional, Cricetulus griseus.
Test [17] relates to V79-4. As to the kind of experiment: Decrease in hydrogen peroxide-induced 8-OHdG in chinese hamster V79-4 cells at 10 ug/mL. In kind it is functional, Cricetulus griseus.
Test [18] relates to V79-4. Put plainly: Decrease in hydrogen peroxide-induced 8-OHdG in chinese hamster V79-4 cells at 50 ug/mL. In kind it is functional, Cricetulus griseus.
Test [19] has as its system V79-4. As to the kind of experiment: Protection against hydrogen peroxide-induced apoptosis in chinese hamster V79-4 cells assessed as cell survival by MTT assay. The format is functional, Cricetulus griseus.

Sequence of Transcription factor Jun (Homo sapiens) (P05412 whole entry): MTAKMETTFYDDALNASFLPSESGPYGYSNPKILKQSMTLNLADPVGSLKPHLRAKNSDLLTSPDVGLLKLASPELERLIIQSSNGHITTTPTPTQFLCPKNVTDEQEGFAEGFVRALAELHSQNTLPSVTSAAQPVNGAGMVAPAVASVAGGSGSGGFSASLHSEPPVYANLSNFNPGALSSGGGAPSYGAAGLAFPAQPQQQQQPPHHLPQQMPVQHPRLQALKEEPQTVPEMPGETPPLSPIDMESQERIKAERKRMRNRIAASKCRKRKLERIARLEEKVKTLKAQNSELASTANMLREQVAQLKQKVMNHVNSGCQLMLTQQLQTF

For `COc1ccc(-c2coc3cc(O[C@@H]4O[C@H](COC5OC[C@@H](O)[C@H](O)[C@H]5O)[C@@H](O)[C@H](O)[C@H]4O)c(OC)c(O)c3c2=O)cc1` (stereo not given in full) [KAKKALIDE], the Activity in [1] came to 8%; in test [2] it was 12%; in [3], 28%; in the test with V79-4 [4] it was 29%; in the test on V79-4 [5], 37%; with V79-4 [6], 51%.
Consider `COc1ccc(-c2coc3cc(O)c(OC)c(O)c3c2=O)cc1` [IRISOLIDONE], for which the Activity in test [1] came out at 10%; in [2], 19%; in test [3], 44%; with V79-4 [7], 36%; in the test with V79-4 [4], 41%; with V79-4 [5] it was 58%. Besides, the Activity stood at 66% in the test on V79-4 [6]; 9280 pg/mL in the test with V79-4 [13]; 1.2 µmol in the test with V79-4 [14]; 1 µmol in the test with V79-4 [15]; 0.8 µmol in the test with V79-4 [16]; 7956 pg/mL in the test with V79-4 [17]. The same compound registered an Activity in the test on V79-4 [18] of 6409 pg/mL. Also, the result (with V79-4 [8]; in the test with V79-4 [10]; in [11]; in the test on V79-4 [12]) was Active. Besides, the result in the test on V79-4 [9] was inactive. Also, in the test on V79-4 [19], the Survival is on record as 48%.

The values are drawn from ChEMBL document CHEMBL1143962, “Protective effect of irisolidone, a metabolite of kakkalide, against hydrogen peroxide induced cell damage via antioxidant effect” (2008).
